Experimental data reported in US5008267A, “Pyrimidinedione compounds, method of producing the same and antiarrythmic agents containing the same” (Mitsui Toatsu Chemicals, Incorporated, priority 1988, dated 1991).
Counter-ions that a name gives are not always drawn.

Legend:
[1] = Toxicity test, mortality rate 24 hours after administration; details: mouse, in vivo
Protocol: Each of the compounds prepared in the above-mentioned examples was administered into a mouse (ddY strain, male). In each case, oral administration (p.o.) and intra peritoneal administration (i.p.) were separately carried out in a dose of 300 mg/kg and 250 mg/kg, respectively.
A mortality rate (number of specimens: one group=2 to 4 mice) of the mice 24 hours after the administration was calculated, and the results are set forth in Table 3.
Following the same procedure as in Toxicity Test 1, toxicity of the respective compounds prepared in the above examples in Table 5 was tested to calculate a mortality rate of mice.
Administration was made by oral administration (p.o.) in an amount of 300 mg/kg of each compound for one mouse.
Following the same procedure as in Toxicity Test 1, toxicity of the respective compounds prepared in the above examples in Table 7 was tested to calculate a mortality rate of mice.

[2] = test system: ventricular muscle refractory period; assay: Influence on ventricular muscle refractory period (ERP); type: in vivo, mongrel dog; details: Canis lupus familiaris, iv, i.v., (W-Y)/Y×100, read-out: ERP (%; extensibility of refractory period)
Protocol: (2) Influence on ventricular muscle refractory period Refractory periods were measured in the following manner before and after each of the compounds and d-sotalol shown in Table 2 was separately administered to a vein or a duodenum, and ERP (%; extensibility of refractory period) was calculated from the measured values: ERP (%)=(W-Y)/Y×100 W: Refractory period after administration Y: Refractory period before administration To a mongrel adult dog, 30 mg/kg of pentobarbital was administered intravenously, and after being anesthetized, a pair of silver-silver chloride electrodes separated by 3 mm was sewn on an opened right ventricule, and electrical stimulation was given at an interval of 400 msec at a duration time of 4 msec under a current twice as much as the threshold. Afterward, a small amount of alcohol was injected into a sinus artery in order to extinguish a pacemaker activity, and the ventricular refractory period (ERP) was measured under ventricule pacing. That is, each 1 train comprised 10 stimulations having intervals of 400 msec, and an interval between the trains was usually 400 msec. However, this interval was shortened 10 msec by 10 msec at the time of the refractory period measurement, and an interval between the trains at the time when reaction to the first stimulation of the train disappeared was regarded as the refractory period. In this case, the electrical stimulation was fed in accordance with a program by a heart stimulation device (Diamedical Co., Ltd.; DHM-226-3).

[3] = test system: Purkinje fiber of the right ventricular free wall (myocardial action potential); assay: Influence on myocardial action potential duration time (APD75), isolated right ventricular free wall, microelectrode in Purkinje fiber; type: cell-based, dog; details: Canis lupus familiaris, 20 min, 20 minutes' incubation; for activation at 1 µg/mL: 1.0 μg/ml; for activation at 1 µg/mL / activation at 3 µg/mL / activation at 10 µg/mL: (B-A)/A×100, read-out: APD75 (%); for activation at 3 µg/mL: 3.0 μg/ml; for activation at 10 µg/mL: 10.0 μg/ml

Compound `C=CCOc1cc([N+](=O)[O-])ccc1OCCCN1CCN(c2cc(=O)n(C)c(=O)n2C)CC1` [Compound 161, 1,3-dimethyl-6-{4-[3-(2-allyloxy-4-nitrophenyloxy)propyl]piperazin-1-yl}-2,4(1H,3H)-pyrimidinedione hydrochloride] has a mortality at 24 h ([1]; po, 300 mg/kg (p.o.)) of 0%, a change in vivo at 0.1 mg/kg [2] of 0% and a change in vivo at 0.3 mg/kg [2] of 6.7%. For the same compound, the change in vivo at 1 mg/kg [2] was 6.7%, the change in vivo at 3 mg/kg [2] was 6.7% and the activation at 1 µg/mL [3] was 26%. For the same compound, the activation at 3 µg/mL [3] was 39%.

Work on `Cn1c(NCCN(CCO)CCCCc2ccc([N+](=O)[O-])cc2)cc(=O)n(C)c1=O` [Compound 23] yielded a mortality at 24 h ([1]; po, 300 mg/kg (p.o.)) of 0%, an activation at 1 µg/mL [3] of 18% and an activation at 3 µg/mL [3] of 35%. It also gave an activation at 10 µg/mL [3] of 39%.

For `Cn1c(N2CCN(CCCSc3ccc([N+](=O)[O-])cc3)CC2)cc(=O)n(C)c1=O` [Compound 51, 1,3-dimethyl-6-{4-[3-(4-nitrophenylthio)propyl]piperazin-1-yl}-2,4(1H,3H)-pyrimidinedione oxalate], the mortality at 24 h ([1]; po, 300 mg/kg (p.o.)) was 0%, the change in vivo at 0.1 mg/kg [2] was 12.6% and the change in vivo at 0.3 mg/kg [2] was 12.6%. The change in vivo at 1 mg/kg [2] was 19% and the activation at 3 µg/mL [3] was 33%.

`Cn1c(NCCNC(=O)c2ccc([N+](=O)[O-])cc2)cc(=O)n(C)c1=O` [Compound 56, 1,3-dimethyl-6-[2-(4-nitrobenzoylamino)ethylamino]-2,4(1H,3H)-pyrimidinedione] showed a mortality at 24 h ([1]; po, 300 mg/kg (p.o.)) of 50%, a change in vivo at 0.1 mg/kg [2] of 6.7% and a change in vivo at 0.3 mg/kg [2] of 6.7%. The change in vivo at 1 mg/kg [2] was 6.7%.

With `Cn1c(N2CCN(CCOc3ccc([N+](=O)[O-])cc3C(=O)c3ccc(Br)cc3)CC2)cc(=O)n(C)c1=O` [Compound 100] the mortality at 24 h ([1]; po, 300 mg/kg (p.o.)) was 0%.

`CCN(CCCCc1ccc([N+](=O)[O-])cc1)CCNc1cc(=O)n(C)c(=O)n1C` [Compound 22] gave a mortality at 24 h ([1]; ip, 250 mg/kg (i.p.)) of 50% and a mortality at 24 h ([1]; po, 300 mg/kg (p.o.)) of 0%.

`Cn1c(N2CCN(CCCOc3c(Cl)cc([N+](=O)[O-])cc3Cl)CC2)cc(=O)n(C)c1=O` [Compound 165, 1,3-dimethyl-6-{4-[3-(2,6-dichloro-4-nitrophenyloxy)propyl]piperazin-1-yl}-2,4(1H,3H)-pyrimidinedione hydrochloride] showed a mortality at 24 h ([1]; po, 300 mg/kg (p.o.)) of 0%.

Work on `Cn1c(N2CCN(Cc3ccc([N+](=O)[O-])cc3C(=O)c3ccccc3)CC2)cc(=O)n(C)c1=O` [Compound 134, 1,3-dimethyl-6-{4-[(2-benzoyl-4-nitrophenyl)methyl]piperazin-1-yl}-2,4(1H,3)-pyrimidinedione oxalate] yielded a mortality at 24 h ([1]; po, 300 mg/kg (p.o.)) of 0%.

Compound `CCOC(=O)CN(CCCc1ccc([N+](=O)[O-])cc1)CCNc1cc(=O)n(C)c(=O)n1C` [Compound 175, 1,3-dimethyl-6-{2-[N-ethoxycarbonylmethyl-3-(4-nitrophenyl)propylamino]ethylamino}-2,4(1H,3H)-pyrimidinedione oxalate] has a mortality at 24 h ([1]; po, 300 mg/kg (p.o.)) of 0%, an activation at 1 µg/mL [3] of 8% and an activation at 3 µg/mL [3] of 16%.

`Cn1c(N2CCN(CCCCOc3ccc([N+](=O)[O-])cc3)CC2)cc(=O)n(C)c1=O` [Compound 54, 1,3-dimethyl-6-{4-[4-(4-nitrophenoxy)butyl]piperazin-1-yl}-2,4(1H,3H)-pyrimidinedione hydrochloride] gave a mortality at 24 h ([1]; po, 300 mg/kg (p.o.)) of 0%, an activation at 3 µg/mL [3] of 15% and an activation at 10 µg/mL [3] of 26%.

Compound `Cn1c(N2CCN(CCOc3ccc(C(=O)c4ccccc4)cc3[N+](=O)[O-])CC2)cc(=O)n(C)c1=O` [Compound 103] has a mortality at 24 h ([1]; po, 300 mg/kg (p.o.)) of 0%.

For `Cn1c(NCCNc2ccc([N+](=O)[O-])cc2C(=O)c2ccccc2)cc(=O)n(C)c1=O` [Compound 131, 1,3-dimethyl-6-[2-(2-benzoyl-4-nitroanilino)ethylamino]-2,4(1H,3H)-pyrimidinedione oxalate], the mortality at 24 h ([1]; po, 300 mg/kg (p.o.)) was 0%.

For `Cn1c(N2CCN(CCNC(=O)c3ccc([N+](=O)[O-])cc3)CC2)cc(=O)n(C)c1=O` [Compound 45, 1,3-dimethyl-6-{4-[2-(4-nitrobenzoylamino)ethyl]piperazin-1-yl}-2,4(1H,3H)-pyrimidinedione hydrochloride], the mortality at 24 h ([1]; po, 300 mg/kg (p.o.)) was 0%.

Compound `CC(=O)c1ccc(OCCCN2CCN(c3cc(=O)n(C)c(=O)n3C)CC2)c([N+](=O)[O-])c1` [Compound 77, 1,3-dimethyl-6-{4-[3-(4-acetyl-2-nitrophenoxy)propyl]piperazin-1-yl}-2,4(1H,3H)-pyrimidinedione oxalate] has a mortality at 24 h ([1]; po, 300 mg/kg (p.o.)) of 0%.

Work on `Cn1c(N2CCN(c3ccc([N+](=O)[O-])cc3C(=O)c3ccccc3)CC2)cc(=O)n(C)c1=O` [Compound 128, 1,3-dimethyl-6-{4-(2-benzoyl-4-nitrophenyl)piperazin-1-yl}-2,4(1H,3H)-pyrimidinedione oxalate] yielded a mortality at 24 h ([1]; po, 300 mg/kg (p.o.)) of 0%.

`Cn1c(NCCNCc2ccc([N+](=O)[O-])cc2)cc(=O)n(C)c1=O` [Compound 15, 1,3-dimethyl-6-[2-(4-nitrobenzylamino)ethylamino]-2,4(1H,3H)-pyrimidinedione oxalate] showed a change in vivo at 0.1 mg/kg [2] of 6.3%, a change in vivo at 0.3 mg/kg [2] of 12.5% and a change in vivo at 1 mg/kg [2] of 12.5%. For the same compound, the change in vivo at 3 mg/kg [2] was 18.8%, the activation at 3 µg/mL [3] was 6% and the activation at 10 µg/mL [3] was 16%.

With `Cn1c(NCCNCCc2ccc([N+](=O)[O-])cc2)cc(=O)n(C)c1=O` [Compound 16, 1,3-dimethyl-6-{2-[2-(4-nitrophenyl)ethylamino]ethylamino}-2,4(1H,3H)-pyrimidinedione oxalate] the change in vivo at 0.1 mg/kg [2] was 6.7%, the change in vivo at 0.3 mg/kg [2] was 13.3% and the change in vivo at 1 mg/kg [2] was 13.3%. For the same compound, the activation at 3 µg/mL [3] was 22%.

`Cn1c(N2CCN(CCCOc3ccc([N+](=O)[O-])c(C(F)(F)F)c3)CC2)cc(=O)n(C)c1=O` [Compound 150, 1,3-dimethyl-6-{4-[3-(3-trifluoromethyl-4-nitrophenyloxy)propyl]piperazin-1-yl}-2,4(1H,3H)-pyrimidinedione oxalate] showed a change in vivo at 0.1 mg/kg [2] of 0%, a change in vivo at 0.3 mg/kg [2] of 0% and a change in vivo at 1 mg/kg [2] of 6.3%. It also gave a change in vivo at 3 mg/kg [2] of 6.3% and an activation at 3 µg/mL [3] of 16%.

For `Cn1c(N2CCN(CCCNc3ccc([N+](=O)[O-])cc3C(=O)c3ccccc3)CC2)cc(=O)n(C)c1=O` [Compound 111, 1,3-dimethyl-6-{4-[3-(2-benzoyl-4-nitroanilino)propyl]piperazin-1-yl}-2,4(1H,3H)-pyrimidinedione oxalate], the change in vivo at 0.1 mg/kg [2] was 7.7%, the change in vivo at 0.3 mg/kg [2] was 10.9% and the change in vivo at 1 mg/kg [2] was 14%. For the same compound, the change in vivo at 3 mg/kg [2] was 21%, the activation at 1 µg/mL [3] was 13% and the activation at 3 µg/mL [3] was 21%.

In the case of `Cn1c(N2CCN(CCc3ccc([N+](=O)[O-])cc3C(=O)c3ccccc3)CC2)cc(=O)n(C)c1=O` [Compound 133, 1,3-dimethyl-6-(4-[2-(2-benzoyl-4-nitrophenyl)ethyl]piperazin-1-yl)-2,4(1H,3H)-pyrimidinedione oxalate], the mortality at 24 h ([1]; po, 300 mg/kg (p.o.)) was 0%, the change in vivo at 0.1 mg/kg [2] was 6.3% and the change in vivo at 0.3 mg/kg [2] was 6.3%. For the same compound, the change in vivo at 1 mg/kg [2] was 18.8%.

`Cn1c(N2CCN(CCCc3ccc([N+](=O)[O-])cc3)CC2)cc(=O)n(C)c1=O` [Compound 33, 1,3-dimethyl-6-{4-[3-(4-nitrophenyl)propyl]piperazin-1-yl)-2,4(1H,3H)-pyrimidinedione oxalate] gave a change in vivo at 0.1 mg/kg [2] of 14.3%, a change in vivo at 0.3 mg/kg [2] of 14.3% and a change in vivo at 1 mg/kg [2] of 17.9%. For the same compound, the change in vivo at 3 mg/kg [2] was 21.4%, the activation at 1 µg/mL [3] was 17% and the activation at 3 µg/mL [3] was 22%. The activation at 10 µg/mL [3] was 31%.

For `Cn1c(N2CCN(CCCOc3ccc([N+](=O)[O-])cc3C(O)c3ccccc3)CC2)cc(=O)n(C)c1=O` (stereo not drawn) [Compound 148, 1,3-dimethyl-6-{4-<3-[2-(α-hydroxybenzyl)-4-nitrophenyloxy]propyl>piperazin-1-yl}-2,4(1H,3H)-pyrimidinedione oxalate], the mortality at 24 h ([1]; po, 300 mg/kg (p.o.)) was 0%.

In the case of `Cn1c(N2CCN(CCc3ccc([N+](=O)[O-])cc3)CC2)cc(=O)n(C)c1=O` [Compound 14, 1,3-dimethyl-6-{4-[2-(4-nitrophenyl)ethyl]piperazin-1-yl}-2,4(1H,3H)-pyrimidinedione hydrochloride], the change in vivo at 0.1 mg/kg [2] was 14%, the change in vivo at 0.3 mg/kg [2] was 33.5% and the activation at 0.3 µg/mL ([3]; 0.3 μg/ml, (B-A)/A×100) was 18%. It also gave an activation at 1 µg/mL [3] of 43%.
